Legend:
Assay type in all cases: in vivo, human
hypertensive patients [1] = assay: Special investigation of combined use of cilnidipine and ARB: degree of the blood pressure controls judged by the doctor (efficacy ratio); design: concentration or dose not given beside the values; conditions: named ARB alone, then cilnidipine additionally administered, kind of ARB unchanged; blood pressure control in the 12th week
Experimental: (§1) A special investigation was conducted in various medical centers, compiled, and analyzed to evaluate the safety and availability of the combined use of cilnidipine and at least one angiotensin II receptor blocker.
(§2) The subjects of the investigation were hypertensive patients which were adapted to cilnidipine. Combined administration of cilnidipine and ARB was started for the treatment of hypertension in these patients.
(§3) A prospective continuous investigation method was conducted. Such a method is continuously conducted with the registered cases with the combined administration of cilnidipine (Atelec®) and ARB, until the number of cases reaches the contracted cases for each center.
(§4) Regarding the administration method of cilnidipine, 5 to 10 mg of cilnidipine was orally administered after breakfast once a day. Meanwhile, the amount may increase or decrease depending on patient's age, symptoms, or the like. When the effect is insufficient, the amount can be increased to 20 mg once a day. The dosing period of cilnidipine was set to 12 weeks in principle.
(§5) The following items were tracked during the investigation: patient's background (sex), existence or nonexistence of previous therapeutic agents and the content thereof, targeted blood pressure (systolic BP/diastolic BP), the conditions of administration of cilnidipine and ARB, antihypertensives used in combination (those other than cilnidipine or ARB), clinical course (systolic BP/diastolic BP/heart rate), and occurrence of side-effects. As for the availability of the combined administration, in the 12th week after starting the combined administration, the doctor in attendance judged the degree of the blood pressure controls on a three-point scale of “well-controlled”, “nearly well-controlled” and “poorly-controlled”, referring to the changes in the systolic and diastolic BP. As for the safety and availability analysis for each patient background, Fisher's exact probability test or the X^2 test was used. As for the blood pressure and heart rate, the average value and the standard deviation were calculated for the subjects before the combined administration (within 4 weeks before starting the combined administration), and data after starting the combined administration were determined on each observation day, and analysis was conducted by using a paired t-test. The test was conducted as the two-sided test and less than 5% of the risk rate was regarded as significant. Furthermore, side-effects were compiled based on the naming of preferred terms (PT) of MedDRA/J ver 8.0.
As the index of availability, in the 12th week after starting the combined administration, the doctor in attendance judged the degree of the blood pressure controls on a three-point scale of “well-controlled”, “nearly well-controlled” and “poorly-controlled”.
(1) Among the 2919 cases in the availability analysis, 42 cases in which the degree of the blood pressure controls was not described, and 168 cases which could not be judged, were excluded. In the other 2709 cases, the ratio of number of cases judged as “nearly well-controlled” or higher was calculated as the efficacy ratio. Accordingly, the efficacy ratio of the subject cases in the availability analysis was 84.8% (2298 cases/2709 cases).

hypertensive patients [2] = assay: Special investigation of combined use of cilnidipine and ARB: changes in systolic and diastolic blood pressure
Experimental: as §1, §2, §3, §4, §5
Table 7 and FIG. 2 show the number of cases for which the blood pressure was measured, and the changes in the measured values of systolic BP, diastolic BP, and heart rate were measured at the following time points: before starting the combined administration, 4 weeks, 8 weeks, and 12 weeks after starting the combined administration, and the last measurement, […] administration, n=2919). […] Then, it continued to slowly decrease, and the a stable change was seen up to 12 weeks after the start.

hypertensive patients [3] = assay: Special investigation of combined use of cilnidipine and ARB: changes in heart rate; conditions: for heart rate (beat/min.) last meas., ave.: named ARB + 10 mg cilnidipine after switch from 5 mg amlodipine, 12 weeks or later to the last measurement; for heart rate (beat/min.) last meas.: named ARB + cilnidipine 10 mg, last measurement; for heart rate (beat/min.) last meas. / heart rate (beat/min.) start. admin., ave. / heart rate (beat/min.) start admin.: doses unchanged; for heart rate (beat/min.) 12th wk aft admin.: named ARB + cilnidipine only, 12 weeks after starting the combined administration; for heart rate (beat/min.) start. admin., ave.: on named ARB + 5 mg amlodipine, at switch of amlodipine to 10 mg cilnidipine; for heart rate (beat/min.) start admin.: on named ARB alone (candesartan 8, valsartan 80, losartan 50, telmisartan 40 mg) at start of adding cilnidipine 10 mg; for heart rate (beat/min.) upon start. admin.: on named ARB alone, before cilnidipine was additionally administered
Experimental: as §1, §2, §3, §4, §5
Table 7 and FIG. 2 show the number of cases for which the blood pressure was measured, and the changes in the measured values of systolic BP, diastolic BP, and heart rate were measured at the following time points: before starting the combined administration, 4 weeks, 8 weeks, and 12 weeks after starting the combined administration, and the last measurement, which was 222.43 days in average from the start of the combined administration, n=2919). […] Then, it continued to slowly decrease, and the a stable change was seen up to 12 weeks after the start.

[4] = named ARB + 10 mg cilnidipine after switch from 5 mg amlodipine, 12 weeks or later to the last measurement
[5] = named ARB + cilnidipine 10 mg, doses unchanged, last measurement, 211.43 ± 133.43 day after starting the combined use
[6] = named ARB + cilnidipine only, 12 weeks after starting the combined administration
[7] = on named ARB + 5 mg amlodipine, at switch of amlodipine to 10 mg cilnidipine, doses unchanged
[8] = on named ARB alone (candesartan 8, valsartan 80, losartan 50, telmisartan 40 mg) at start of adding cilnidipine 10 mg, doses unchanged
[9] = on named ARB alone, before cilnidipine was additionally administered

| SMILES | efficacy ratio (%) (hypertensive patients [1]) | diastolic BP (hypertensive patients [2]; [4]) [mmHg] | systolic BP (hypertensive patients [2]; [4]) [mmHg] | diastolic BP (hypertensive patients [2]; [5]) [mmHg] | systolic BP (hypertensive patients [2]; [5]) [mmHg] | diastolic BP (hypertensive patients [2]; [6]) [mmHg] | systolic BP (hypertensive patients [2]; [6]) [mmHg] | diastolic BP (hypertensive patients [2]; [7]) [mmHg] | systolic BP (hypertensive patients [2]; [7]) [mmHg] | diastolic BP (hypertensive patients [2]; [8]) [mmHg] | systolic BP (hypertensive patients [2]; [8]) [mmHg] | diastolic BP (hypertensive patients [2]; [9]) [mmHg] | systolic BP (hypertensive patients [2]; [9]) [mmHg] | heart rate (beat/min.) last meas., ave. (hypertensive patients [3]) [beat/min.] | heart rate (beat/min.) last meas. (hypertensive patients [3]) [beat/min.] | heart rate (beat/min.) 12th wk aft admin. (hypertensive patients [3]) [beat/min.] | heart rate (beat/min.) start. admin., ave. (hypertensive patients [3]) [beat/min.] | heart rate (beat/min.) start admin. (hypertensive patients [3]) [beat/min.] | heart rate (beat/min.) upon start. admin. (hypertensive patients [3]) [beat/min.] |
| --- | --- | --- | --- | --- | --- | --- | --- | --- | --- | --- | --- | --- | --- | --- | --- | --- | --- | --- | --- |
| CCCc1nc2c(C)cc(-c3nc4ccccc4n3C)cc2n1Cc1ccc(-c2ccccc2C(=O)O)cc1 [telmisartan] | 88.0 | 83.08 | 147.23 | 80.49 ± 12.78 | 138.89 ± 15.89 | 80.70 ± 11.71 | 143.64 ± 12.53 | 86.15 | 155.00 | 93.52 ± 10.84 | 163.00 ± 17.32 | 90.94 ± 12.27 | 161.33 ± 12.62 | 71.00 | 72.12 ± 9.42 | 73.09 ± 9.29 | 70.00 | 74.24 ± 11.55 | 74.95 ± 12.70 |
| CCCCc1nc(Cl)c(CO)n1Cc1ccc(-c2ccccc2-c2nn[nH]n2)cc1 [losartan] | 89.8 | 79.78 | 138.22 | 79.32 ± 9.82 | 137.74 ± 15.19 | 79.45 ± 9.20 | 139.52 ± 14.43 | 82.00 | 150.35 | 90.40 ± 10.35 | 161.84 ± 16.13 | 88.67 ± 9.91 | 160.78 ± 14.13 | 72.44 | 73.66 ± 9.49 | 73.95 ± 7.68 | 72.00 | 74.13 ± 8.98 | 73.81 ± 8.29 |
| CCCCC(=O)N(Cc1ccc(-c2ccccc2-c2nnn[nH]2)cc1)[C@H](C(=O)O)C(C)C [valsartan] | 86.0 | 80.74 | 140.67 | 80.62 ± 10.40 | 140.75 ± 15.61 | 79.31 ± 10.42 | 138.32 ± 14.28 | 89.36 | 158.15 | 91.43 ± 11.20 | 160.65 ± 16.04 | 91.50 ± 10.58 | 160.65 ± 15.20 | 75.86 | 72.89 ± 10.20 | 71.65 ± 9.38 | 77.18 | 74.08 ± 10.41 | 73.22 ± 9.51 |
| CCCc1nc(C(C)(C)O)c(C(=O)O)n1Cc1ccc(-c2ccccc2-c2nnn[nH]2)cc1 [olmesartan] | 100.0 | – | – | – | – | – | – | – | – | – | – | – | – | – | – | – | – | – | – |
| CCOc1nc2cccc(C(=O)O)c2n1Cc1ccc(-c2ccccc2-c2nnn[nH]2)cc1 [candesartan] | 85.5 | 78.58 | 140.96 | 79.81 ± 12.72 | 141.02 ± 17.36 | 79.81 ± 12.72 | 141.29 ± 17.02 | 82.90 | 152.10 | 89.59 ± 14.80 | 164.98 ± 16.35 | 89.59 ± 14.80 | 163.78 ± 17.52 | 72.58 | 72.47 ± 11.14 | 72.66 ± 11.86 | 75.54 | 74.19 ± 10.96 | 75.14 ± 11.48 |

Reference: patent publication US20080051438A1, “Preventive/Therapeutic Compositions Useful for Treating Cardiovascular Diseases” (priority 2006, published 2008)
